In article PMC7932537, “Quantitative profiling of protease specificity” (PLoS Computational Biology, 2021):

Tests used:
[1] = biological target: T1, MMP-2 (Homo sapiens, UniProt P08253); experiment: K(obs) of individual phage substrates (set of 1369); format: biochemical; conditions: MMP2
T1 sequence (P08253 110-660): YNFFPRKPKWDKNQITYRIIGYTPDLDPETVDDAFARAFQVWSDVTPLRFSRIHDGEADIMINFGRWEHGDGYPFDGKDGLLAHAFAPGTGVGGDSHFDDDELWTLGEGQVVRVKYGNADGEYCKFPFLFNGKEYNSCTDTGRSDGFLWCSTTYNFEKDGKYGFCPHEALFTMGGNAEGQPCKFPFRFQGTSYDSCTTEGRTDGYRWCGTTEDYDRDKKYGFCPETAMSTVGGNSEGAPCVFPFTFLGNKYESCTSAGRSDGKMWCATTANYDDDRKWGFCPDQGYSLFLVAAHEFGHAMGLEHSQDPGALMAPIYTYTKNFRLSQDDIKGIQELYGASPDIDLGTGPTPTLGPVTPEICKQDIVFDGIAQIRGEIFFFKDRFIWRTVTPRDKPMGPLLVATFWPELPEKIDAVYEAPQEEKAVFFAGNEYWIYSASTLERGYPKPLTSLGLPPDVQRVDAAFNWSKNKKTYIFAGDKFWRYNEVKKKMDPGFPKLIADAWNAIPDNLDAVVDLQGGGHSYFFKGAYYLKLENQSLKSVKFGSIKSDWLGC

[2] = biological target: MMP-9 (Homo sapiens, UniProt P14780); experiment: as above; format: biochemical; conditions: MMP9
[3] = tested on: MMP-2; experiment: Substrate phage display with NGS: relative probability (RP) of P3-P1' tetramer clusters; format: biochemical, human; conditions: MMP2;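 also: ratio of tetramer probability after protease selection to that in naive phage library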
[4] = individual phage substrate of the set of 1369 peptides, cleavage position marked by '-'
[5] = individual phage substrate of the set of 1369 peptides, dash in the sequence marks the cleavage position
[6] = RP of the P3-P1' tetramer contained in the substrate
[7] = individual phage substrates, set of 1369 peptides, cleavage position marked by hyphen in sequence
[8] = individual phage substrates, set of 1369 peptides, hyphen in sequence marks cleavage position
[9] = RP of the P3-P1' tetramer contained in the substrate (substrate phage display with NGS)

Chain of MMP-9 (P14780 94-707): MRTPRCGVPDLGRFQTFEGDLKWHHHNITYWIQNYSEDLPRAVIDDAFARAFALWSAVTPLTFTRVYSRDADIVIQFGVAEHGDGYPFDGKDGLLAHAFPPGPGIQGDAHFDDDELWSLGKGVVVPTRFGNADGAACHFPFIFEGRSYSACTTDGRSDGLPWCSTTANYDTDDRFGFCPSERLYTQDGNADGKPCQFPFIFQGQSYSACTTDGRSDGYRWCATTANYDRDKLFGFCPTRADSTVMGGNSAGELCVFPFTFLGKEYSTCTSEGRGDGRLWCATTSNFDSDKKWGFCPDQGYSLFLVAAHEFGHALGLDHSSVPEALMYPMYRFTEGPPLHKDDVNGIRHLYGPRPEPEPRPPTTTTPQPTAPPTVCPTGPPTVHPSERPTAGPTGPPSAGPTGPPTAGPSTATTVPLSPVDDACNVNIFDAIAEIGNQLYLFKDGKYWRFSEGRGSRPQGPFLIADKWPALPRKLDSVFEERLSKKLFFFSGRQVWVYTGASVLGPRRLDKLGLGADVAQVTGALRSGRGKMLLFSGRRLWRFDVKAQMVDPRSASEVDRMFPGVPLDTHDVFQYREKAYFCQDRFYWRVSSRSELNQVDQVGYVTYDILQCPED

Substance | Kobs [1, 4] [M⁻¹ s⁻¹] | Kobs [2, 5] [M⁻¹ s⁻¹] | Kobs [1, 7] [M⁻¹ s⁻¹] | Kobs [2, 8] [M⁻¹ s⁻¹] | relative probability (RP) [3, 6] | relative probability (RP) [3, 9]
GSGAA-LTMPT |  |  | 836.403 | 84.609 |  | 15.7207
SGVRH-LINTA | 1763.55 | 8321.48 |  |  | 25.4239 | 
TTPYH-ITASG | 4922.1 | 12792.1 |  |  | 15.3574 | 
PRVHH-LTASG | 6396.07 | 2615.58 |  |  | 14.1228 | 
SGFRN-LRITA |  |  | 0 | 201.585 |  | 9.821
SQVRF-LTASG | 8321.48 | 6688.74 |  |  | 15.0438 | 
SGPFY-LRNTA |  |  | 2038.8 | 7815.03 |  | 17.7778
YLVRY-LTASG |  |  | 9740.44 | 12792.1 |  | 18.3724
HVWMN-LTASG | 418.952 | 619.843 |  |  | 0 | 
NRFSN-LTASG |  |  | 8941.32 | 0 |  | 24
VFTRN-LTASG | 12792.1 | 6396.07 |  |  | 12.3403 | 
SGPLG-LSGTA | 12792.1 | 12792.1 |  |  | 35.3536 | 
HSPWF-LTASG |  |  | 3165.09 | 9740.44 |  | 12.628
YDISA-LTASG | 12792.1 | 113.394 |  |  | 31.8319 | 
SGARQ-LVLTA |  |  | 0 | 0 |  | 3.214
SSVWH-ITASG | 323.705 | 836.403 |  |  | 1.931 | 
GYPLH-LQTAS |  |  | 9740.44 | 8941.32 |  | 34.1843
GRPRS-LTASG | 12792.1 | 10866.7 |  |  | 33.3704 | 
FDAQS-LTASG | 1711.63 | 874.197 |  |  | 18.365 | 
LVGRA-LTASG | 6688.74 | 2476.66 |  |  | 7.944 | 
SEPFG-LTASG | 12792.1 | 12792.1 |  |  | 31.7131 | 
KGPEM-LTASG |  |  | 3637.04 | 5667.28 |  | 16.0599
GRVYD-LKTAS |  |  | 585.336 | 2761.81 |  | 1.244
SGVWG-IYVTA |  |  | 484.315 | 2761.81 |  | 3.01
PCHLA-LTASG | 1327.88 | 619.843 |  |  | 11.3603 | 
SGGSG-LWATP | 1870.4 | 1071.29 |  |  | 1.9698 | 
KWVSM-LTASG |  |  | 12792.1 | 1870.4 |  | 23.0821
GGPIP-LWTAS |  |  | 4763.33 | 12792.1 |  | 33.1236

More lines, main results first:

Kobs [1, 4] [M⁻¹ s⁻¹] | Kobs [2, 5] [M⁻¹ s⁻¹] | Kobs [1, 7] [M⁻¹ s⁻¹] | Kobs [2, 8] [M⁻¹ s⁻¹] | Substance | relative probability (RP) [3, 6] | relative probability (RP) [3, 9]
171.876 | 292.668 |  |  | GSGAH-LQLST | 8.464 | 
 |  | 912.511 | 0 | HRQQN-LTASG |  | 4.247
1816.46 | 654.784 |  |  | ARIEY-LTASG | 5.366 | 
9740.44 | 4613.14 |  |  | GVVRG-LSTAS | 29.092 | 
 |  | 7386.83 | 4335.13 | SIVRM-LTASG |  | 15.9125
12792.1 | 12792.1 |  |  | QEPRN-ITASG | 31.9621 | 
10866.7 | 4470.66 |  |  | PSWRA-LTASG | 22.4074 | 
1112.44 | 142.481 |  |  | SGAHG-LLTTA | 23.6336 | 
 |  | 1513.13 | 6131.32 | GMPWS-VTASG |  | 0.3793
 |  | 2687.73 | 5461.43 | TQVFG-LTASG |  | 12.5523
585.336 | 951.362 |  |  | GEVFS-LTASG | 9.631 | 
12792.1 | 8941.32 |  |  | LNPAF-LTASG | 32.4224 | 
2615.58 | 4763.33 |  |  | KLGRA-LTASG | 7.944 | 
 |  | 912.511 | 4470.66 | VKVFS-MTASG |  | 2.265
1711.63 | 690.17 |  |  | SEWQG-LTASG | 12.939 | 
12792.1 | 5667.28 |  |  | GSAVG-LRTAS | 28.9998 | 
 |  | 3438.54 | 5461.43 | SGVFW-MRGTA |  | 10.3215
 |  | 8941.32 | 0 | WRYSN-LTASG |  | 25.2832
2157.02 | 3344.37 |  |  | SGQRG-IYATA | 7.484 | 
619.843 | 6688.74 |  |  | SGVWN-LIMTA | 14.4124 | 
 |  | 7386.83 | 12792.1 | SGPNY-IRATA |  | 6.689

Kobs [1, 4] [M⁻¹ s⁻¹] | Kobs [2, 5] [M⁻¹ s⁻¹] | Kobs [1, 7] [M⁻¹ s⁻¹] | Kobs [2, 8] [M⁻¹ s⁻¹] | Substance | relative probability (RP) [3, 6] | relative probability (RP) [3, 9]
 |  | 386.839 | 0 | SGYMS-LIATA |  | 0.07249
5090.5 | 1610.61 |  |  | GVARP-LSTAS | 27.8706 | 
4335.13 | 12792.1 |  |  | GMPRY-MTASG | 28.0367 | 
 |  | 12792.1 | 8321.48 | RTPVG-LTASG |  | 35.2016
 |  | 12792.1 | 912.511 | NRLSH-WTASG |  | 23.1226
 |  | 2916.17 | 1239.69 | GHARS-LKTAS |  | 17.186
 |  | 0 | 0 | SGASH-MTLTA |  | 12.3873
0 | 0 |  |  | SGTLN-LYNTA | 2.764 | 
12792.1 | 12792.1 |  |  | ELVRS-LTASG | 12.3051 | 
8941.32 | 6396.07 |  |  | VLPEP-LTASG | 26.8179 | 
1373.05 | 0 |  |  | SGVSF-LQQTA | 5.918 | 
 |  | 2761.81 | 2476.66 | VVYRG-LTASG |  | 5.445
 |  | 9740.44 | 0 | TSLAN-LTASG |  | 34.4823
 |  | 2687.73 | 0 | AHFAH-LTASG |  | 19.6504
 |  | 1610.61 | 27.918 | PRLTH-LTASG |  | 4.299
 |  | 0 | 0 | GGSGM-LKLQP |  | 1.312
 |  | 12792.1 | 619.843 | VMYGN-LTASG |  | 24.0019
7386.83 | 12792.1 |  |  | RPPLA-FTASG | 31.4142 | 
10866.7 | 9740.44 |  |  | FMPSA-QTASG | 28.0379 | 
 |  | 142.481 | 27.918 | ENFLH-LTASG |  | 0.8093
 |  | 1112.44 | 3741.87 | QSWYG-MTASG |  | 0.05309
